Consider ten compounds from publication PMC4250329 (Bioorganic & medicinal chemistry letters, 2014).

The subject of assay [1] is IFNγ-induced activation of the STAT1 pathway. The experiment in a line: HCS of IFNγ-induced STAT1 pathway activation. To be noted: for inhibition at 50 µM: read-out: inhibition of IFNγ-induced STAT1 activation.
For assay [2], the system named is four HNSCC cell lines (CAL33, FADU, 686 LN, OSC19). The experiment in a line: Anti-proliferative activity in panel of HNSCC cell lines. In kind it is cell-based.
Assay [3] concerns panel of >80 kinases. The experiment in a line: Kinase panel. To be noted: data not shown. In kind it is biochemical.
For assay [4], the system named is JAK1. The experiment in a line: Western blot of pJAK1/JAK1. In kind it is cell-based. The conditions noted are these: Western blot analysis. Background: A western blot detects proteins with antibodies after separation by electrophoresis.
Assay [5] concerns JAK2. The experiment in a line: Western blot of pJAK2/JAK2. In kind it is cell-based. To be noted: Western blot analysis.
In assay [6] the test system is IL-6-induced STAT3 tyrosine phosphorylation and nuclear translocation. The experiment in a line: High content screen. In kind it is cell-based. To be noted: for SI (STAT1/STAT3), selectivity index ratio: Table 3; for selectivity against pSTAT1 / activity (STAT3): summary of Table 3.
[7] abbreviates: read-out: anti-proliferative activity.

Entries after “also recorded” stand apart in the source; their conditions may differ. Like-named read-outs stand apart in the source and are kept apart here.

With `CCOc1ccc2nc(NC3=NC(C)=CC(C)(C)N3)nc(C)c2c1` [11a, 6-ethoxy-4-methylquinazoline-2-amino-dihydro-trimethylpyrimidine], in assay [1] (at 50 μM), the “effect on IFNγ-induced activation of the STAT1 pathway” value was “no effect”. For the same compound, the inhibition (as a rule, the percentage by which the read-out fell short of the control) at 50 µM in assay [1] was less than 50%. Besides, the IC50 in assay [2] (read-out: anti-proliferative activities IC50's) was 17 to 37 µM. Besides, the “activity against a panel of >80 kinases” value in assay [3] is listed as “did not exhibit any significant activity”. The “effects on pJAK1/JAK1” value in assay [4] was “no effects; also recorded: did not show any effects”. Also, in assay [5], the “effects on pJAK2/JAK2” value is recorded as “no effects; also recorded: did not show any effects”.
Take `CC1=CC(C)(C)N=C(Nc2nc(C)c3cc(C)ccc3n2)N1` [11b]: the inhibition at 50 µM in assay [1] was less than 50%. For the same compound, in assay [2] (setting [7]), the IC50 fell in the range of 1 to 50 µM. Further, the “improved potency compared to the original hit 11a” value in assay [6] (STAT3, text b9) was found to be 4 fold. Further, in assay [6] (summary b20), the “potency against STAT3” value is given as “low-micromolar potency”.
`CC1=CC(C)(C)N=C(Nc2nc(C)c3cc(C)cc(C)c3n2)N1` [11c]: the IC50 in assay [2] (setting [7]) fell in the range of 1 to 50 µM. In assay [6] (summary b20), the “potency against STAT3” value is “low-micromolar potency”. Also, in assay [6] (versus 11a), the “improvement in STAT3 inhibition” value came out at 20 fold.
As for `CCOc1ccc2c(C)nc(NC3=NC(C)=CC(C)(C)N3)nc2c1` [11d], the inhibition at 50 µM in assay [1] was less than 50%.
For `Cc1cc(C)c2nc(Nc3nc(C)c(C)c(O)n3)nc(C)c2c1` [19b], in assay [6], the “SI (STAT1/STAT3), selectivity index ratio” value is recorded as greater than 7 and the “selectivity against pSTAT1” value is recorded as no less than 3 fold.
In the case of `CCOc1ccc2nc(Nc3nc(=O)cc(C)[nH]3)nc(C)c2c1` [19e], in assay [6], the “activity (STAT3)” value is given as “completely abolished activity”.
Turning to `Cc1cc2nc(Nc3nc(=O)c(C)c(C)[nH]3)nc(C)c2cc1C` [19n], the “selectivity against pSTAT1” value in assay [6] is no less than 3 fold.
Take `Cc1[nH]c(Nc2nc(C)c3cc4c(cc3n2)OCO4)nc(=O)c1C` [19p]: the “activity (STAT3)” value in assay [6] was “completely abolished activity”.
Regarding `Cc1nc(Nc2nc(=O)cc(-c3ccccc3)[nH]2)nc2cc3c(cc12)OCO3` [19q], the “SI (STAT1/STAT3), selectivity index ratio” value in assay [6] was greater than 3.
For the compound `CC(C)(C)c1nc2c3ccc(F)cc3c3c(=O)[nH]ccc3c2[nH]1` [compound 6, reference compound], the “potency against STAT1” value in assay [1] is “nanomolar potencies”. Further, the “potency against STAT3” value in assay [6] was “nanomolar potencies”.
